Results on 66 compounds are retold here after ChEMBL document CHEMBL1138862 (J Med Chem, 2006).

This assay concerns Escherichia coli. Nature of the assay: Antibacterial activity against Escherichia coli W3110. Type of assay: functional.

Regarding `CCC1CCCCN1C(P(=O)(O)O)P(=O)(O)O` (stereo unspecified), the “inhibition zone (IZ)” value was found to be 0 mm.
Next, `CC1CCN(C(P(=O)(O)O)P(=O)(O)O)CC1`: 0 mm; `CC1CCCC(C)N1C(P(=O)(O)O)P(=O)(O)O` (stereo unspecified): 0 mm.
In the case of `CC1CCCN(C(P(=O)(O)O)P(=O)(O)O)C1` (stereo unspecified) it was 0 mm; in that of `O=P(O)(O)Cc1cccc(CP(=O)(O)O)c1`, 0 mm.
Next, `CCc1ccc(NC(P(=O)(O)O)P(=O)(O)O)cc1`: 0 mm; `CCc1cccc(NC(P(=O)(O)O)P(=O)(O)O)n1`: 0 mm; `O=P(O)(O)C(O)(Cc1cccc(F)c1)P(=O)(O)O`: 0 mm.
Turning to `CC(C)c1cccc(C(C)C)c1NC(P(=O)(O)O)P(=O)(O)O`, the “inhibition zone (IZ)” value amounted to 0 mm.
As to `CCC(C)NC(P(=O)(O)O)P(=O)(O)O` (stereo unspecified), the “inhibition zone (IZ)” value was 0 mm.
Next, `O=P(O)(O)C(Nc1ncccc1COc1ccccc1)P(=O)(O)O`: 0 mm; `O=P(O)(O)C(=Nc1cccnc1)P(=O)(O)O`: 0 mm; `O=P(O)(O)C(Nc1ncc(Br)cc1Br)P(=O)(O)O`: 0 mm.
Regarding `Cc1cccnc1NCC(P(=O)(O)O)S(=O)(=O)O` (stereo unspecified), the “inhibition zone (IZ)” value worked out at 0 mm.
For `O=P(O)(O)C(Nc1cccc(Oc2ccccc2)c1)P(=O)(O)O`, the “inhibition zone (IZ)” value was found to be 0 mm.
Consider `O=P(O)(O)C(O)(CCc1cccnc1)P(=O)(O)O`, for which the “inhibition zone (IZ)” value was found to be 0 mm.
In the case of `O=P(O)(O)C(CNc1ccccn1)P(=O)(O)O` it was 0 mm; in that of `NCCCCC(O)(P(=O)(O)O)P(=O)(O)O`, 0 mm.
Next, `CCCCC(O)(P(=O)(O)O)P(=O)(O)O`: 0 mm.
In the case of `CC(C)(C)c1cc(NC(P(=O)(O)O)P(=O)(O)O)cc(C(C)(C)C)c1` it was 0 mm.
For the compound `O=P(O)(O)C(Nc1cccnc1)P(=O)(O)O`, the “inhibition zone (IZ)” value is recorded as 0 mm.
Next, `O=P(O)(O)C(Nc1cccnc1Cl)P(=O)(O)O`: 0 mm.
Next, `CC1CCCCN1C(P(=O)(O)O)P(=O)(O)O` (stereo unspecified): 0 mm; `CC1CC(C)CN(C(P(=O)(O)O)P(=O)(O)O)C1` (stereo unspecified): 0 mm; `CN(Cc1ccccc1)C(P(=O)(O)O)P(=O)(O)O`: 0 mm.
Regarding `O=P(O)(O)C(CNc1cccnc1)P(=O)(O)O`, the “inhibition zone (IZ)” value is recorded as 0 mm.
In the case of `Cc1nc(NC(P(=O)(O)O)P(=O)(O)O)c(Br)cc1Br` it was 0 mm; in that of `O=P(O)(O)C(O)(Cc1cn2ccccc2n1)P(=O)(O)O`, 0 mm.
For the compound `O=P(O)(O)C(Nc1cc2ccccc2cn1)P(=O)(O)O`, the “inhibition zone (IZ)” value turned out to be 0 mm.
Consider `CCCCCCCCCCCC(O)(P(=O)(O)O)P(=O)(O)O`, for which the “inhibition zone (IZ)” value came out at 0 mm.
In the case of `O=P(O)(O)CC(c1cccnc1)P(=O)(O)O` (stereo unspecified) it was 0 mm.
Next, `Nc1ccc(CC(O)(P(=O)(O)O)P(=O)(O)O)cc1`: 0 mm.
Next, `O=P(O)(O)C(O)(Cc1ccccn1)P(=O)(O)O`: 0 mm; `CCCCOc1ccc(NC(P(=O)(O)O)P(=O)(O)O)cc1`: 0 mm; `O=P(O)(O)C(N1CCCCC1)P(=O)(O)O`: 0 mm.
As to `CCCC(O)(P(=O)(O)O)P(=O)(O)O`, the “inhibition zone (IZ)” value amounted to 0 mm.
`O=P(O)(O)CC(c1ccncc1)P(=O)(O)O` (stereo unspecified): the “inhibition zone (IZ)” value came to 0 mm.
In the case of `CCc1cccc(NC(P(=O)(O)O)P(=O)(O)O)c1` it was 0 mm; in that of `CCCCCCC(O)(P(=O)(O)O)P(=O)(O)O`, 0 mm; in that of `CC(N)CC(O)(P(=O)(O)O)P(=O)(O)O` (stereo unspecified), 0 mm.
As to `O=P(O)(O)C(O)(CSc1ccncc1)P(=O)(O)O`, the “inhibition zone (IZ)” value was determined as 0 mm.
Consider `CCCCCCCCCCCCCCCCCC(O)(P(=O)(O)O)P(=O)(O)O`, for which the “inhibition zone (IZ)” value turned out to be 0 mm.
In the case of `O=P(O)(O)C(Nc1c(F)c(F)c(F)c(F)c1F)P(=O)(O)O` it was 0 mm; in that of `CCCCCCCCCCCCCC(O)(P(=O)(O)O)P(=O)(O)O`, 0 mm.
In the case of `CCCCCCCCCCCCCCCC(O)(P(=O)(O)O)P(=O)(O)O` it was 0 mm.
For `O=P(O)(O)C(O)(Cc1ccncc1)P(=O)(O)O`, the “inhibition zone (IZ)” value is 0 mm.
Next, `O=P(O)(O)C(Nc1ccc2c(c1)CCC2)P(=O)(O)O`: 0 mm; `CCC(C)CNC(P(=O)(O)O)P(=O)(O)O` (stereo unspecified): 0 mm.
In the case of `CCCCc1ccc(NC(P(=O)(O)O)P(=O)(O)O)cc1` it was 0 mm; in that of `O=P(O)(O)C(Nc1ccc(Cl)nc1)P(=O)(O)O`, 0 mm; in that of `O=P(O)(O)C(O)(Cc1ccccc1)P(=O)(O)O`, 0 mm.
Next, `O=P(O)(O)C(Nc1ccc(Cl)cc1Cl)P(=O)(O)O` [2,4-DICHLOROPHENYLAMINOMETHYLENEBISPHOSPHONIC ACID]: 0 mm; `CCCCNC(P(=O)(O)O)P(=O)(O)O` [(BUTYLAMINO)METHYLENEDIPHOSPHONIC ACID]: 0 mm.
Consider `O=P(O)(O)C(NC1CCC1)P(=O)(O)O` [(CYCLOBUTYLAMINO)METHYLENEDIPHOSPHONIC ACID], for which the “inhibition zone (IZ)” value is given as 0 mm.
With `O=P(O)(O)C(NC1CCCC1)P(=O)(O)O` [(CYCLOPENTYLAMINO)METHYLENEDIPHOSPHONIC ACID], the “inhibition zone (IZ)” value is reported as 0 mm.
Take `CCCN(CCC)C(P(=O)(O)O)P(=O)(O)O` [(DIPROPYLAMINO)METHYLENEDIPHOSPHONIC ACID]: the “inhibition zone (IZ)” value was found to be 0 mm.
Next, `CC(C)CCNC(P(=O)(O)O)P(=O)(O)O` [(ISOPENTYLAMINO)METHYLENEDIPHOSPHONIC ACID]: 0 mm.
In the case of `CCCCCCCCCNC(P(=O)(O)O)P(=O)(O)O` [(NONYLAMINO)METHYLENEDIPHOSPHONIC ACID] it was 0 mm; in that of `CCCCCCCCNC(P(=O)(O)O)P(=O)(O)O` [(OCTYLAMINO)METHYLENEDIPHOSPHONIC ACID], 0 mm; in that of `CCCNC(P(=O)(O)O)P(=O)(O)O` [(PROPYLAMINO)METHYLENEDIPHOSPHONIC ACID], 0 mm.
Regarding `O=P(O)(O)C(O)(C1CCC1)P(=O)(O)O` [CYCLOBUTYL(HYDROXY)METHYLENEDIPHOSPHONIC ACID], the “inhibition zone (IZ)” value was determined as 0 mm.
In the case of `O=P(O)(O)C(O)(C1CC1)P(=O)(O)O` [CYCLOPROPYL(HYDROXY)METHYLENEDIPHOSPHONIC ACID] it was 0 mm; in that of `CCCCCN(C)CCC(O)(P(=O)(O)O)P(=O)(O)O` [IBANDRONIC ACID], 0 mm; in that of `O=P(O)(O)C(NC1CCCCCC1)P(=O)(O)O` [INCADRONIC ACID], 0 mm.
As to `O=P(O)(O)C(N1CCCCCCC1)P(=O)(O)O` [N-(HEPTAMETHYLENEIMINO)METHYLENEBISPHOSPHONIC ACID], the “inhibition zone (IZ)” value came to 0 mm.
In the case of `NCCCCCC(O)(P(=O)(O)O)P(=O)(O)O` [NERIDRONIC ACID] it was 0 mm.
